In brackets after ≈: the same amount, converted by molar mass.
Tests used:
[1] = Rat plasma fraction unbound; assay type: in vitro ADME; settings: read-out: Rat Fu Plasma
[2] = Rat intrinsic and hepatic clearance; assay type: in vitro ADME
Brain-plasma partition = assay type: in vivo; settings: rat; for unbound brain-to-plasma partition coefficient (Kp,uu): unbound brain-plasma ratio, read-out: Brain-Plasma Kp,ω
[3] = Human plasma fraction unbound; assay type: in vitro ADME; settings: read-out: Human Fu Plasma
[4] = Human intrinsic and hepatic clearance; assay type: in vitro ADME
[5] = Rat brain fraction unbound; assay type: in vitro ADME; settings: read-out: Rat Fu Brain
Kinetic solubility = assay type: physicochemical; settings: kinetic from dmso stock

| SMILES | fraction unbound [1] | CLint scaled [2] [mL/min/kg] | Rat CLhep [2] [mL/min/kg] | Kp (Brain-plasma partition) | unbound brain-to-plasma partition coefficient (Kp,uu) (Brain-plasma partition) | fraction unbound [3] | CLint scaled [4] [mL/min/kg] | Human CLhep [4] [mL/min/kg] | fraction unbound [5] | solubility kinetic (Kinetic solubility) [µM] |
| --- | --- | --- | --- | --- | --- | --- | --- | --- | --- | --- |
| CO[C@H](C)COc1nccc2cc(Nc3n[nH]c4nccnc34)ccc12 [Compound 84] | 0.027 | 145 | 47.2 | 1.11 | 0.33 | 0.019 | 75.3 | 16.4 | 0.008 | – |
| c1cnc2[nH]nc(Nc3ccc4c(OCC5CCCCO5)nccc4c3)c2c1 (stereo not shown) [Compound 76] | 0.01 | – | – | 1.27 | 0.13 | 0.008 | – | – | 0.001 | – |
| c1cc2cc(Nc3n[nH]c4nccnc34)ccc2c(O[C@H]2CCOC2)n1 [Compound 59] | – | – | – | – | – | – | – | – | – | 2.6 ± 1.6 (≈ 0.906 µg/mL) |
| c1cnc2[nH]nc(Nc3ccc4c(OCC5CCOCC5)nccc4c3)c2c1 [Compound 77] | 0.008 | – | – | 1.59 | 0.4 | 0.013 | – | – | 0.002 | – |
| CO[C@H](C)COc1nccc2cc(Nc3n[nH]c4ncccc34)ccc12 [Compound 78] | 0.042 | – | – | 0.99 | 0.09 | 0.023 | – | – | 0.004 | – |
| C[C@@H]1C[C@H](Oc2nccc3cc(Nc4n[nH]c5cccnc45)ccc23)CO1 [Compound 89] | – | 204 | 52.1 | – | – | – | 37.8 | 13.5 | – | 2.7 ± 0.4 (≈ 0.976 µg/mL) |
| C[C@H]1OCC[C@H]1Oc1nccc2cc(Nc3n[nH]c4cccnc34)ccc12 [Compound 91] | – | 377 | 59.0 | – | – | – | 109 | 17.6 | – | 3.3 ± 0.2 (≈ 1.19 µg/mL) |
| c1cnc2c(Nc3ccc4c(OCC5CCOCC5)nccc4c3)n[nH]c2c1 [Compound 68] | 0.009 | – | – | 1.06 | 0.12 | 0.008 | – | – | 0.001 | – |
| c1cnc2[nH]nc(Nc3ccc4c(O[C@@H]5CCOC5)nccc4c3)c2c1 [Compound 65] | 0.043 | – | – | 1.28 | 0.09 | 0.028 | – | – | 0.003 | – |
| CCOCCOc1nccc2cc(Nc3n[nH]c4ncccc34)ccc12 [Compound 75] | 0.031 | 456 | 60.7 | 1 | 0.13 | 0.021 | 71.8 | 16.2 | 0.004 | – |

The remaining lines, values ahead:

| fraction unbound [1] | CLint scaled [2] [mL/min/kg] | Rat CLhep [2] [mL/min/kg] | Kp (Brain-plasma partition) | unbound brain-to-plasma partition coefficient (Kp,uu) (Brain-plasma partition) | fraction unbound [3] | CLint scaled [4] [mL/min/kg] | Human CLhep [4] [mL/min/kg] | fraction unbound [5] | solubility kinetic (Kinetic solubility) [µM] | SMILES |
| --- | --- | --- | --- | --- | --- | --- | --- | --- | --- | --- |
| – | 227 | 53.5 | – | – | – | 36.8 | 13.4 | – | 0.7 ± 0.2 (≈ 0.266 µg/mL) | Fc1cnc2[nH]nc(Nc3ccc4c(OC5CCOCC5)nccc4c3)c2c1 [Compound 99] |
| – | 923 | 65.1 | – | – | – | 87.6 | 16.9 | – | 15.2 ± 1.5 (≈ 5.93 µg/mL) | c1cnc2[nH]nc(Nc3ccc4c(OCCN5CCOCC5)nccc4c3)c2c1 [Compound 94] |
| – | 216 | 52.9 | – | – | – | 30 | 12.4 | – | 1.6 ± 0.2 (≈ 0.535 µg/mL) | COCCOc1nccc2cc(Nc3n[nH]c4ccccc34)ccc12 [Compound 98] |
| – | 156 | 48.3 | – | – | – | 46.1 | 14.4 | – | 1.1 ± 0.6 (≈ 0.435 µg/mL) | Fc1cnc2c(Nc3ccc4c(OCC5COCCO5)nccc4c3)n[nH]c2c1 (stereo not shown) [Compound 100] |
| – | 161 | 48.8 | – | – | – | 96.8 | 17.3 | – | 1 ± 0.1 (≈ 0.353 µg/mL) | COCCOc1nccc2cc(Nc3n[nH]c4cc(F)cnc34)ccc12 [Compound 97] |

Source: US10968227B2, “Isoquinoline ether compounds as mGluR4 allosteric potentiators, compositions, and methods of treating neurological dysfunction” (Vanderbilt University, priority 2016, dated 2021)
